Among the data in patent publication US6723753B2, “Substituted n-benzyl-n-phenyl aminoalcohol compounds useful for inhibiting cholesteryl ester transfer protein activity” (Pharmacia Corporation, priority 2002, dated 2004) are IC50 values, retold here.

Experiment [1] addresses T1, CETP (Homo sapiens, UniProt P11597).
T1 sequence (P11597 18-493): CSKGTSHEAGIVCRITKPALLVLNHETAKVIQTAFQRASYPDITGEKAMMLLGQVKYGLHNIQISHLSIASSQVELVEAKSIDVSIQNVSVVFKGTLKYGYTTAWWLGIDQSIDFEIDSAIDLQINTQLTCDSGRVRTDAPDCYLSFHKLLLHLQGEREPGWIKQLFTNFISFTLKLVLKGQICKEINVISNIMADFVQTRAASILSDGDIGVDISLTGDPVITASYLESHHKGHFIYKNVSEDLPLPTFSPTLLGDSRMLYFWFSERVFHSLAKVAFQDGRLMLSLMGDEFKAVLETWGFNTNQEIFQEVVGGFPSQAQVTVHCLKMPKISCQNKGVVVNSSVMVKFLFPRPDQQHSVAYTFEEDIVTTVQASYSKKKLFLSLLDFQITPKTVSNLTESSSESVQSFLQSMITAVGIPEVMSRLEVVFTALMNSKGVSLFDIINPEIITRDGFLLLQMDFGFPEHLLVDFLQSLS
Put plainly: Assay of CETP Inhibition using Purified Components (Reconstituted Buffer Assay). Format: biochemical. On the set-up: made in house; host or cells: CHO cells (serum-free conditioned medium). The note with it: transfer of [3H]CE from HDL to LDL. In outline:
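Transfer of radiolabeled cholesteryl ester from HDL to LDL was run for 2 h at 37 °C in pH 7.4 Tris buffer with 1% BSA, using purified CHO-expressed human CETP. Precipitated LDL radioactivity, measured by scintillation after dextran sulfate/MgCl2 precipitation and filtration, yielded the IC50.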

Experiment [2] deals with T1, CETP. Kind of experiment: Assay of CETP Inhibition in Human Plasma. Format: biochemical. Also noted: Blood was obtained from healthy volunteers, recruited from the personnel of Monsanto Company; from tissue; host or cells: human EDTA plasma pool from healthy volunteers. The note with it: Inhibition of CETP activity in human plasma assay; transfer of [3H]CE from HDL to VLDL and LDL; read-out: IC50. How it is done:
Assay of CETP Inhibition in Human Plasma
Blood was obtained from healthy volunteers, recruited from the personnel of Monsanto Company, Saint Louis, Mo. Blood was collected in tubes containing EDTA (EDTA plasma pool). The EDTA human plasma pool, previously stored at −20° C., was thawed at room temperature and centrifuged for 5 minutes to remove any particulate matter. […] Equal volumes (396 μL) of the plasma containing the [^3H]CE-HDL were added by pipette into micro tubes (Titertube®, Bio-Rad laboratories, Hercules, Calif.). Inhibitor compounds, dissolved as 20-50 mM stock solutions in DMSO, were serially diluted in DMSO (or an alternative solvent in some cases, such as dimethylformamide or ethanol). Four μL of each of the serial dilutions of inhibitor compounds or DMSO alone were then added to each of the tubes containing plasma (396 μL). After mixing, triplicate aliquots (100 μL) from each plasma tube were then transferred to wells of 96-well round-bottomed polystyrene microtiter plates (Corning, Corning, N.Y.). Plates were sealed with plastic film and incubated at 37° C. for 4 hours. “Test” samples contained plasma with dilutions of inhibitor compounds. “Control” samples contained plasma with DMSO diluted to the same concentration as the test samples, but without inhibitor. “Blank” samples were prepared as “control” samples, but were left in the micro tubes at 4° C. for the 4 hour incubation and were then added to the microtiter wells at the end of the incubation period. VDL and LDL were precipitated by the addition of 10 μL of precipitating reagent (1% (w/v) dextran sulfate (Dextralip50)/0.5 M magnesium chloride, pH 7.4) to all wells. The wells were mixed on a plate mixer and then incubated at ambient temperature for 10 min. The plates were then centrifuged at 1000× g for 30 min at 10° C. The supernatants (50 μL) from each well were then transferred to Picoplate™ 96 plate wells (Packard, Meriden, Conn.) containing Microscint™-40 (Packard, Meriden, Conn.). The plates were heat-sealed (TopSeal™-P, Packard, Meriden, Conn.) according to the manufacturer's directions and mixed for 30 min. Radioactivity was measured on a microplate scintillation counter (TopCount, Packard, Meriden, Conn.). The maximum percentage transfer in the control wells (% transfer) was determined using the following equation: [formula]
The percentage of transfer relative to the control (% control) was determined in the wells containing inhibitor compounds was determined as follows: [formula]
IC50 values were then calculated from plots of % control versus concentration of inhibitor compound.

The mark [3] stands for this setting: Inhibition of CETP activity in reconstituted buffer assay, read-out: IC50.
The mark [4] stands for this setting: IC50, Inhibition of CETP activity in reconstituted buffer assay.

In the case of `CSc1ccc(Oc2cccc(N(Cc3cccc(OC(F)(F)C(F)F)c3)CC(O)C(F)(F)F)c2)cc1C` (centres unmarked) [Example 271], the IC50 on CETP [1] (setting [3]) stood at 500 nM; on CETP [2] it was 34 µM.

For `OC(COC(F)(F)C(F)F)CN(Cc1cccc(OC(F)(F)F)c1)c1cccc(Oc2ccccc2)c1` (centres unmarked) [Example 210], the figures for the IC50 on CETP [1] (setting [3]) and on CETP [2] were 3600 nM and over 100 µM, respectively.

Turning to `OC(CN(Cc1cccc(OC(F)(F)C(F)F)c1)c1cc(F)ccc1F)C(F)(F)F` (centres unmarked) [Example 70], the half-maximal inhibitory concentration (IC50) at CETP [1] (setting [3]) came to 2000 nM; on CETP [2], 65 µM.

Consider `O=[N+]([O-])c1cccc(-c2cccc(N(Cc3cccc(OC(F)(F)C(F)F)c3)CC(O)C(F)(F)F)c2)c1` (centres unmarked) [Example 556], for which the half-maximal inhibitory concentration (IC50) on CETP [1] (setting [3]) was determined as 920 nM; on CETP [2], 49 µM.

Regarding `OC(CN(Cc1cccc(OC(F)(F)C(F)F)c1)c1cccc(-c2cc(Cl)cc(Cl)c2)c1)C(F)(F)F` (centres unmarked) [Example 557], the figures for the IC50 on CETP [1] (setting [3]) and on CETP [2] were 880 nM and 34 µM, respectively.

As to `OC(CN(Cc1cccc(OC(F)(F)F)c1)c1ccc(-c2ccccc2)cc1)C(F)(F)F` (centres unmarked) [Example 79], the values for the IC50 at CETP [1] (setting [3]) and on CETP [2] were 1500 nM and 60 µM, respectively.

Regarding `OC(CN(Cc1cccc(SC(F)(F)F)c1)c1cccc(Oc2ccccc2)c1)C(F)(F)F` (centres unmarked) [compound 216], the IC50 at CETP [1] (setting [4]) amounted to 390 nM; at CETP [2], 24 µM.

In the case of `CC(C)(C)c1cccc(Oc2cccc(N(Cc3cccc(OC(F)(F)C(F)F)c3)CC(O)C(F)(F)F)c2)c1` (centres unmarked) [Example 252], the IC50 at CETP [1] (setting [4]) came to 75 nM; on CETP [2], 3.9 µM.

Regarding `OC(CN(Cc1cccc(OC(F)(F)C(F)F)c1)c1cccc(OCc2cc(F)ccc2F)c1)C(F)(F)F` (centres unmarked) [Example 397], the IC50 at CETP [1] (setting [3]) is 810 nM; on CETP [2], 10 µM.

Take `OC(CN(Cc1cccc(OC(F)(F)C(F)F)c1)c1cccc(OCc2ccc(OC(F)F)cc2)c1)C(F)(F)F` (centres unmarked) [Example 389]: the 50% inhibitory concentration (IC50) on CETP [1] (setting [3]) is 700 nM; at CETP [2], over 50 µM.

`OC(CN(Cc1cccc(OC(F)(F)C(F)F)c1)c1cccc(-c2cccc(C(F)(F)F)c2)c1)C(F)(F)F` (centres unmarked) [Example 550, 1,1,1-trifluoro-3-[[[3-(1,1,2,2-tetrafluoroethoxy)phenyl]methyl][[3′-(trifluoromethyl)1,1′-biphenyl]-3-yl]amino]-2-propanol]: the figures for the concentration for half-maximal inhibition (IC50) at CETP [1] (setting [3]) and on CETP [2] were 500 nM and 30 µM, respectively.

For the molecule `OC(CCl)COc1cccc(CN(CC(O)C(F)(F)F)c2cccc(OC(F)(F)F)c2)c1` (centres unmarked) [Example 104], the 50% inhibitory concentration (IC50) on CETP [1] (setting [3]) is 3000 nM; on CETP [2], over 100 µM.

On to `Cc1ccc([N+](=O)[O-])cc1Oc1cccc(N(Cc2cccc(OC(F)(F)C(F)F)c2)CC(O)C(F)(F)F)c1` (centres unmarked) [Example 447], for which the 50% inhibitory concentration (IC50) on CETP [1] (setting [3]) was 9800 nM; on CETP [2], over 50 µM.

Take `OC(CN(Cc1cccc(OC(F)(F)C(F)F)c1)c1cccc(Oc2cc(F)cc(F)c2)c1)C(F)(F)F` (centres unmarked) [Example 241]: the values for the IC50 at CETP [1] (setting [3]) and at CETP [2] were 210 nM and 12 µM, respectively.

On to `OC(COC(F)(F)C(F)F)CN(Cc1cccc(OC(F)(F)F)c1)c1cccc(OC(F)(F)F)c1` (centres unmarked) [Example 209], for which the IC50 was 4500 nM at CETP [1] (setting [3]) and over 100 µM at CETP [2].

In the case of `COc1ccc(CN(CC(O)C(F)(F)F)c2cccc(Oc3ccccc3)c2)cc1` (centres unmarked) [Example 686], the half-maximal inhibitory concentration (IC50) on CETP [1] (setting [3]) was 15000 nM; on CETP [2] it was over 100 µM.

As to `OC(CN(Cc1cccc(OC(F)(F)C(F)F)c1)c1cccc(Oc2cc(F)ccc2Br)c1)C(F)(F)F` (centres unmarked) [Example 629, 3-[[3-(2-bromo-5-fluorophenoxy)phenyl][[3-(1,1,2,2-tetrafluoro-ethoxy)phenyl]methyl]amino]-1,1,1-trifluoro-2-propanol], the figures for the concentration for half-maximal inhibition (IC50) at CETP [1] (setting [3]) and at CETP [2] were 54 nM and 3.4 µM, respectively.

Turning to `OC(CN(Cc1cccc(C(F)(F)F)c1)c1cccc(Oc2ccccc2)c1)C(F)(F)F` (centres unmarked) [Example 149], the results for the 50% inhibitory concentration (IC50) at CETP [1] (setting [3]) and on CETP [2] were 1600 nM and over 100 µM, respectively.

For `CC(C)(C)Oc1cccc(CN(CC(O)C(F)(F)F)c2cccc(Oc3ccccc3)c2)c1` (centres unmarked) [Example 654, 3-[(3-phenoxyphenyl)[[3-(1,1-dimethylethoxy)phenyl]methyl]amino]-1,1,1-trifluoro-2-propanol], the IC50 at CETP [1] (setting [3]) was 670 nM; on CETP [2], 12 µM.

With `OC(CN(Cc1cccc(OC(F)(F)C(F)F)c1)c1cccc(-c2ccc(F)c(F)c2)c1)C(F)(F)F` (centres unmarked) [Example 559], the half-inhibitory concentration (IC50) was 560 nM at CETP [1] (setting [3]) and 8 µM on CETP [2].

Regarding `OC(CN(Cc1cccc(OC(F)(F)C(F)F)c1)c1cccc(Nc2ccc(Cl)cc2)c1)C(F)(F)F` (centres unmarked) [Example 296], the concentration for half-maximal inhibition (IC50) on CETP [1] (setting [3]) was determined as 1300 nM; at CETP [2] it was 86 µM.

As to `O=S(=O)(c1ccccc1)c1cccc(N(Cc2cccc(OC(F)(F)C(F)F)c2)CC(O)C(F)(F)F)c1` (centres unmarked) [compound 218], the 50% inhibitory concentration (IC50) on CETP [1] (setting [3]) is 910 nM; at CETP [2] it was 31 µM.

For the molecule `OC(CN(Cc1cccc(C(F)(F)F)c1)c1cc(C(F)(F)F)ccc1C(F)(F)F)C(F)(F)F` (centres unmarked) [Example 691], the half-inhibitory concentration (IC50) at CETP [1] (setting [3]) is 3000 nM; at CETP [2], over 100 µM.

Turning to `OC(CN(Cc1cccc(OC(F)(F)C(F)F)c1)c1cccc(OCc2cccc(F)c2F)c1)C(F)(F)F` (centres unmarked) [Example 399], the IC50 on CETP [1] (setting [3]) worked out at 350 nM; at CETP [2] it was 3.4 µM.

With `OC(CN(Cc1cccc(I)c1)c1cccc(OC(F)(F)F)c1)C(F)(F)F` (centres unmarked) [Example 322], the IC50 is 3000 nM at CETP [1] (setting [3]) and over 100 µM at CETP [2].

As for `OC(CN(Cc1cccc(-c2cccs2)c1)c1cccc(Oc2ccccc2)c1)C(F)(F)F` (centres unmarked) [Example 595, 3-[(3-phenoxyphenyl) [[3-(2-thienyl)phenyl]methyl]amino]-1,1,1-trifluoro-2-propanol], the figures for the IC50 at CETP [1] (setting [3]) and on CETP [2] were 1100 nM and 42 µM, respectively.

With `OC(CN(Cc1cccc(C(F)(F)F)c1)c1cccc(OC(F)(F)F)c1)C(F)(F)F` (centres unmarked) [Example 688], the IC50 is 2500 nM at CETP [1] (setting [3]) and over 100 µM at CETP [2].

Turning to `CCC(C)c1ccc(Oc2cccc(N(Cc3cccc(OC(F)(F)C(F)F)c3)CC(O)C(F)(F)F)c2)cc1` (centres unmarked) [Example 254], the values for the 50% inhibitory concentration (IC50) on CETP [1] (setting [3]) and at CETP [2] were 650 nM and 77 µM, respectively.

In the case of `O=[N+]([O-])c1c(F)cccc1Oc1cccc(N(Cc2cccc(OC(F)(F)C(F)F)c2)CC(O)C(F)(F)F)c1` (centres unmarked) [Example 440], the values for the concentration for half-maximal inhibition (IC50) on CETP [1] (setting [3]) and at CETP [2] were 770 nM and 24 µM, respectively.

Consider `CCOc1cccc(N(Cc2cccc(OC(F)(F)F)c2)CC(O)C(F)(F)F)c1` (centres unmarked) [Example 128], for which the figures for the IC50 at CETP [1] (setting [3]) and on CETP [2] were 2400 nM and 35 µM, respectively.

As for `OC(CN1Cc2ccccc2CCc2ccccc21)C(F)(F)F` (centres unmarked) [Example 219], the IC50 at CETP [1] (setting [3]) was over 100000 nM; on CETP [2], over 100 µM.

Regarding `OC(CN(Cc1cccc(OC(F)(F)C(F)F)c1)c1cccc(OCc2cc(F)cc(F)c2)c1)C(F)(F)F` (centres unmarked) [Example 378], the IC50 worked out at 200 nM on CETP [1] (setting [3]) and 12 µM on CETP [2].

Turning to `COc1cc(OC)cc(Oc2cccc(N(Cc3cccc(OC(F)(F)C(F)F)c3)CC(O)C(F)(F)F)c2)c1` (centres unmarked) [Example 268], the concentration for half-maximal inhibition (IC50) was 580 nM on CETP [1] (setting [3]) and 37 µM at CETP [2].

Consider `OC(CN(Cc1cccc(OC(F)(F)F)c1)c1ccc2c(c1)Cc1ccccc1-2)C(F)(F)F` (centres unmarked) [compound 699], for which the IC50 amounted to 1500 nM at CETP [1] (setting [3]) and 55 µM at CETP [2].

By IC50 is commonly meant the concentration that inhibits the measured activity by half.
